According to PubChem BioAssay AID1963829 (Molecular Pharmacology Branch, DTP, NCI, 2024):
Values joined by “and” are separate entries in the source; they are usually repeats but may differ in a detail not shown here. Equal entries are not always repeated.

Test system: 935938-334-R-J1-PDC complex spheroid viability
Assay: Anticancer human tumor 935938-334-R-J1-PDC patient-derived small intestine adenocarcinoma cell line growth inhibition [POLQ]
Conditions: for viability, T/C: stronger effect = lower value
Experimental: Multicellular complex tumor spheroid response to Polymerase (POL) inhibitors (novobiocin, ART-558, RP6685) in combination with a variety of drugs and investigational agents in selected tumor cell lines
The POL inhibitors (novobiocin, ART-558, and RP6685) were evaluated both individually and in combination with standard of care and investigational anticancer small molecules within a complex spheroid model of solid tumors. . Complex spheroids include a stromal component modeled by human endothelial cells (HUVEC) and fibroblasts modeled by human mesenchymal stem cells (MSCs). The concentration ranges selected for each drug and investigational agent were based upon clinically achievable concentrations if the clinical Cmax of the agent was known.
Compounds. The drugs and investigational agents: novobiocin (NSC847541), ART-558 (NSC835418), RP-6685 (NSC848927), peposertib (NSC802822), ceralasertib (NSC780249), elimusertib (NSC800525), camonsertib (NSC841442), AZD-1390 (NSC803789), olaparib (NSC753686), talazoparib (NSC767125), rucaparib (NSC756644), sotorasib (NSC818433), MRTX-1133 (NSC836407), SN-38 (NSC673596), topotecan (NSC609699), epotoside (NSC141540), doxorubicin (NSC123127), gemcitabine (NSC613327), 5-fluorouracil (NSC19893), paclitaxel (NSC125973), vemurafenib (NSC761431), MSA-2 (NSC828583), SN-011 (NSC837082), adavosertib (NSC754352), prexasertib (NSC758257), carboplatin (NSC241240) and oxaliplatin (NSC266046), were obtained from the National Cancer Institute (NCI) Developmental Therapeutics Program Chemical Repository (21). The FDA-approved anticancer drug set is available from the Developmental Therapeutics Program at https://dtp.cancer.gov/organization/dscb/obtaining/. […] The stock solutions were prepared in dimethyl sulfoxide (DMSO, Sigma-Aldrich, St. Louis, MO, cat. D2650), except for the platinum compounds which were prepared in saline (Quality Biological, Gaithersburg, MD, cat. 114-055-101), at 800-fold the tested concentration and stored at -70 degrees C prior to their use. All drugs and investigational agents were tested over a range starting from a high concentration at or near the clinical Cmax and decreasing in half-log increments. If the clinical Cmax for an agent had not been determined, the highest concentration tested was 10 microM, except for SN-38, which was tested at a high concentration of 1 microM.
Cell Culture. All cells were maintained in an incubator at 37 degrees C and 5% CO2 with 95% humidity. The PDC lines were cultured according to standard operating procedures established by the NCI PDMR (https://pdmr.cancer.gov). Table 3 of the manuscript, lists the cell lines along with the number of the three cell types plated to form the mct-spheroids and media for tumor cell growth. After thawing, all PDC lines, except 997537-175-T-J1-PDC and 415267-285-R-J2-PDC, were cultured in Matrigel-coated flasks prepared with a working solution of 1X Ham's F-12 nutrient mix, without supplementation (Thermo Fisher Scientific, cat. 11765054), 100 U/mL penicillin-streptomycin (Thermo Fisher Scientific, cat. 15140122), and 2.5% Matrigel (Corning Inc., Corning, NY, cat. 354248) for the first three passages. The two PDC lines 997537-175-T-J1-PDC and 415267-285-R-J2-PDC were cultured on uncoated flasks. The 857933-349-R-J2-PDC line was cultured in 6C/Colon 1B media containing advanced DMEM/F-12 (Thermo Fisher Scientific, cat. 12634028), 10 mM HEPES (Thermo Fisher Scientific, cat. 15630080), 1X GlutaMAX supplement (Thermo Fisher Scientific, cat. 35050061), 0.1 mg/mL primocin (InvivoGen, San Diego, CA, cat. ant-pm-2), 10% defined fetal bovine serum, heat inactivated (HyClone Laboratories Inc., Logan, UT, cat. SH30070.03HI), 50% L-WRN conditioned media (ATCC, cat. CRL-3276), 1.25 mM N-Acetyl-L-cysteine (Sigma-Aldrich, cat. A9165), 10 mM nicotinamide (Sigma-Aldrich, cat. N0636), 1X B-27 supplement (Thermo Fisher Scientific, cat. 17504044), 1X N-2 supplement (Thermo Fisher Scientific, cat. […]
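Note: spheroids exposed to drugs for seven days before viability read.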
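Throughout, for viability, T/C: 100% = DMSO vehicle control wells.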

COc1cccc(OCCCN)c1-c1cc(Nc2cnc(C#N)cn2)n[nH]1
viability, T/C (compound 0.00316 µM): 93.3% and 117% and 102% | viability, T/C (compound 0.01 µM): 77.8% and 102% and 85.5% | viability, T/C (compound 0.0316 µM): 53.3% and 60.4% and 57.6% | viability, T/C (compound 0.1 µM): 22.6% and 36.9% and 41.6% | viability, T/C (compound 0.316 µM): 11.3% and 14.1% and 8.34% | viability, T/C (compound 1 µM): 10% and 10.2% and 9.09% | IC50 (curve of compound): 33.6 nM and 53.8 nM and 50.9 nM

CC1COCCN1c1cc(C2(O)CC3CCC(C2)O3)c2cnn(-c3ccn[nH]3)c2n1 (stereo not given)
viability, T/C (compound 0.0316 µM): 84.1% and 74.7% and 60.4% | viability, T/C (compound 0.1 µM): 62.5% and 69.8% and 72.1% | viability, T/C (compound 0.316 µM): 45.6% and 32.8% and 34.3% | viability, T/C (compound 1 µM): 24.3% and 23.7% and 22.5% | viability, T/C (compound 3.16 µM): 15% and 14% and 18.6% | viability, T/C (compound 10 µM): 12% and 10.3% (2×) | IC50 (curve of compound): 216 nM and 187 nM and 180 nM

CC[C@@]1(O)C(=O)OCc2c1cc1n(c2=O)Cc2cc3c(CN(C)C)c(O)ccc3nc2-1
viability, T/C (compound 0.000316 µM): 81.3% and 82.1% and 82.2% | viability, T/C (compound 0.001 µM): 103% and 107% and 86.1% | viability, T/C (compound 0.00316 µM): 72.4% and 89.2% and 99% | viability, T/C (compound 0.01 µM): 103% and 118% and 92.3% | viability, T/C (compound 0.0316 µM): 96.8% and 83.6% and 81.2% | viability, T/C (compound 0.1 µM): 49.7% and 61.4% and 63% | IC50 (curve of compound): 99.2 nM and > 100 nM

O=C(Nc1ccc(O)c(NS(=O)(=O)c2ccc(F)cc2)c1)c1ccc(-c2ccccc2)cc1 + Nc1ccc(C#CCN(C(=O)Cc2ncc(C(F)(F)F)cc2C(F)(F)F)c2ccc(F)cc2)nn1
IC50 (curve of first compound, second compound 0.0316 µM): > 10000 nM | IC50 (curve of first compound, second compound 0.1 µM): > 10000 nM | IC50 (curve of first compound, second compound 0.316 µM): > 10000 nM | IC50 (curve of first compound, second compound 1 µM): > 10000 nM | IC50 (curve of first compound, second compound 3.16 µM): > 10000 nM | IC50 (curve of first compound, second compound 10 µM): 7740 nM | viability, T/C (second compound 0.0316 µM, first compound 0.0316 µM): 107% | viability, T/C (second compound 0.0316 µM, first compound 0.1 µM): 120% | viability, T/C (second compound 0.0316 µM, first compound 0.316 µM): 108% | viability, T/C (second compound 0.0316 µM, first compound 1 µM): 89.2% | viability, T/C (second compound 0.0316 µM, first compound 3.16 µM): 81.7% | viability, T/C (second compound 0.0316 µM, first compound 10 µM): 64.6% | viability, T/C (second compound 0.1 µM, first compound 0.0316 µM): 91.9% | viability, T/C (second compound 0.1 µM, first compound 0.1 µM): 83.1% | viability, T/C (second compound 0.1 µM, first compound 0.316 µM): 91.3% | viability, T/C (second compound 0.1 µM, first compound 1 µM): 106% | viability, T/C (second compound 0.1 µM, first compound 3.16 µM): 104% | viability, T/C (second compound 0.1 µM, first compound 10 µM): 79% | viability, T/C (second compound 0.316 µM, first compound 0.0316 µM): 112% | viability, T/C (second compound 0.316 µM, first compound 0.1 µM): 92.9% | viability, T/C (second compound 0.316 µM, first compound 0.316 µM): 96.8% | viability, T/C (second compound 0.316 µM, first compound 1 µM): 110% | viability, T/C (second compound 0.316 µM, first compound 3.16 µM): 112% | viability, T/C (second compound 0.316 µM, first compound 10 µM): 67.2% | viability, T/C (second compound 1 µM, first compound 0.0316 µM): 83.1% | viability, T/C (second compound 1 µM, first compound 0.1 µM): 105% | viability, T/C (second compound 1 µM, first compound 0.316 µM): 114% | viability, T/C (second compound 1 µM, first compound 1 µM): 126% | viability, T/C (second compound 1 µM, first compound 3.16 µM): 112% | viability, T/C (second compound 1 µM, first compound 10 µM): 59.4% | viability, T/C (second compound 3.16 µM, first compound 0.0316 µM): 91.8% | viability, T/C (second compound 3.16 µM, first compound 0.1 µM): 98% | viability, T/C (second compound 3.16 µM, first compound 0.316 µM): 111% | viability, T/C (second compound 3.16 µM, first compound 1 µM): 101% | viability, T/C (second compound 3.16 µM, first compound 3.16 µM): 116% | viability, T/C (second compound 3.16 µM, first compound 10 µM): 70.9% | viability, T/C (second compound 10 µM, first compound 0.0316 µM): 127% | viability, T/C (second compound 10 µM, first compound 0.1 µM): 85.6% | viability, T/C (second compound 10 µM, first compound 0.316 µM): 101% | viability, T/C (second compound 10 µM, first compound 1 µM): 94.5% | viability, T/C (second compound 10 µM, first compound 3.16 µM): 99.5% | viability, T/C (second compound 10 µM, first compound 10 µM): 35.9%

O=c1[nH]cc(F)c(=O)[nH]1
viability, T/C (compound 0.0316 µM): 103% and 81.1% and 79.2% | viability, T/C (compound 0.1 µM): 114% and 90.2% and 81.6% | viability, T/C (compound 0.316 µM): 113% and 80.6% and 77.4% | viability, T/C (compound 1 µM): 90.5% and 72.5% and 74.6% | viability, T/C (compound 3.16 µM): 75.5% and 63.4% and 54.9% | viability, T/C (compound 10 µM): 59% and 54.3% and 47.8% | IC50 (curve of compound): > 10000 nM and 7010 nM
